This is an account of results in patent publication US20040176431A1, “Antiproliferative 2-(sulfo-phenyl)-aminothiazole derivatives and pharmaceutical compositions, and methods for their use” (Pfizer, Inc., priority 2003, published 2004).

This assay concerns the target T1, CDK4/cyclin D3 (Homo sapiens, UniProt P11802).
T1 construct: made in house; host or cells: insect cells (baculovirus co-infection)
Kind of assay: Inhibition of CDK4/Cyclin D retinoblastoma kinase activity. It counts as biochemical. The note with it: for % Inhib CDK4/D @ 0.1 μM / inhibition at 0.1 µM: test compound at 0.1 μM; for % Inhib CDK4/D @ 1 μM / inhibition at 1 µM: test compound at 1 μM (head line shifted: 'mM' printed beside 'Structure'); for % Inhib CDK4/D @ 0.03 / inhibition at 0.03 µM: test compound at 0.03 (unit cell empty, head line shifted; μM); for inhibition at 0.1 µM: read-out: % Inhib CDK4/D @ 0.1 μM; for inhibition at 1 µM: read-out: % Inhib CDK4/D @ 1 μM; for inhibition at 0.03 µM: read-out: % Inhib CDK4/D @ 0.03. As to the method:
Cyclin-dependent kinase activity was measured by quantifying the enzyme-catalyzed, time-dependent incorporation of radioactive phosphate from [^32P]ATP or [^33P]ATP into a protein substrate. Unless noted otherwise, assays were performed in 96-well plates in a total volume of 50 μL, in the presence of 10 mM HEPES (N-[2-hydroxyethyl]piperazine-N′-[2-ethanesulfonic acid]) (pH 7.4), 10 mM MgCl2, 25 μM adenosine triphosphate (ATP), 1 mg/mL ovalbumin, 5 μg/mL leupeptin, 1 mM dithiothreitol, 10 mM β-glycerophosphate, 0.1 mM sodium vanadate, 1 mM sodium fluoride, 2.5 mM ethylene glycol-bis(β-aminoethyl ether)-N,N,N′N′-tetraacetic acid (EGTA), 2% (v/v) dimethylsulfoxide, and 0.03-0.4 μCi [^32/33P]ATP per reaction. Reactions were initiated with enzyme, incubated at 30° C., and terminated after 20 minutes by the addition of ethylenediaminetetraacetic acid (EDTA) to 250 mM. The phosphorylated substrate was then captured on a nitrocellulose or phosphocellulose membrane using a 96-well filtration manifold, and unincorporated radioactivity was removed by repeated washing with 0.85% phosphoric acid. Radioactivity was quantified by exposing the dried membranes to a phosphorimager.
Inhibition was measured relative to control wells that contained all reaction components including 2% (v/v) DMSO but no compound, after subtraction of background radioactivity measured in the absence of enzyme. Apparent Ki values of discrete compounds were measured by assaying enzyme activity in the presence of different inhibitor compound concentrations and subtracting the background radioactivity measured in the absence of enzyme. The kinetic parameters (kcat, Km for ATP) were measured for each enzyme under the usual assay conditions by determining the dependence of initial rates on ATP concentration. Inhibition data were fit to an equation for competitive inhibition using Kaleidagraph (Synergy Software), or were fit to an equation for competitive tight-binding inhibition using the software KineTic (BioKin, Ltd.).
A complex of human CDK4 and genetically truncated (1-264) cyclin D3 was purified using traditional biochemical chromatographic techniques from insect cells that had been co-infected with the corresponding baculovirus expression vectors (see e.g., Meijer and Kim, “Chemical Inhibitors of Cyclin-Dependent Kinases,” Methods in Enzymol., 283, 113-128 (1997)). The enzyme complex (5 nM) was assayed with 0.3-0.5 μg of purified recombinant retinoblastoma protein fragment (Rb) as a substrate. The engineered Rb fragment (residues 386-928 of the native retinoblastoma protein; 62.3 kDa) contains the majority of the phosphorylation sites found in the native 106-kDa protein, as well as a tag of six histidine residues for ease of purification. Phosphorylated Rb substrate was captured by microfiltration on a nitrocellulose membrane and quantified using a phosphorimager as described above. For measurement of tight-binding inhibitors, the assay duration was extended to 60 minutes, during which the time-dependence of product formation was linear and initial rate conditions were met.

The structures appear in SMILES notation.

T1 sequence (P11802 whole entry): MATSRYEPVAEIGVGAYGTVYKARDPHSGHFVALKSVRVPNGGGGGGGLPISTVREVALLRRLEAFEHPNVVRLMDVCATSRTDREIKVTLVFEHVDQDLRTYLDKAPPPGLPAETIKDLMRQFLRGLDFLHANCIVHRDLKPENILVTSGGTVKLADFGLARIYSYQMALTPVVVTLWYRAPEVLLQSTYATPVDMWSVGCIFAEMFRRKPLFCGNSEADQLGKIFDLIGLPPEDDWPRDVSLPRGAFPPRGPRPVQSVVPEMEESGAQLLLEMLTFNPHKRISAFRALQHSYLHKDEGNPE
T1 sequence (P30281 1-264 partner limits assumed): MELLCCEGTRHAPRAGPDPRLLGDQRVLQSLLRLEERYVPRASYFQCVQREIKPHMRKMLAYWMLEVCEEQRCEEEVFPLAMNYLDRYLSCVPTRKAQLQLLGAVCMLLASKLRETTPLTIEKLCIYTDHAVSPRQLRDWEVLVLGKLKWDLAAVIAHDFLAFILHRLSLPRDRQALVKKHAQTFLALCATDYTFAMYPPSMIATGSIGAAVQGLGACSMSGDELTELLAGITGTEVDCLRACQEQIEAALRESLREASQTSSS

Take `CC1(CS(=O)(=O)c2ccc(Nc3nc(N)c(C(=O)c4c(Cl)cccc4Cl)s3)cc2)CO1` (stereo not drawn) [DD(220)]: the “% Inhib CDK4/D @ 0.1 μM” value is recorded as 30%, the “% Inhib CDK4/D @ 1 μM” value is on record as 26.3% and the “% Inhib CDK4/D @ 0.03” value was −19%.

`Nc1nc(Nc2ccc(SCC(=O)Nc3ccccc3)cc2)sc1C(=O)c1c(Cl)cccc1Cl` [DD(15)]: the inhibition at 0.1 µM stood at 53%, the inhibition at 1 µM worked out at 82% and the inhibition at 0.03 µM was 38%.

`COCC[S+]([O-])c1ccc(Nc2nc(N)c(C(=O)c3c(Cl)cccc3Cl)s2)cc1` (stereo not drawn) [DD(94)]: the inhibition at 0.1 µM was determined as 51%, the inhibition at 1 µM turned out to be 70.9% and the inhibition at 0.03 µM amounted to 17%.

Take `CC(C)OC(=O)CC[S+]([O-])c1ccc(Nc2nc(N)c(C(=O)c3c(Cl)cccc3Cl)s2)cc1` (stereo not drawn) [DD(118)]: the inhibition at 0.1 µM is 22%, the inhibition at 1 µM was determined as 49.9% and the inhibition at 0.03 µM was -0.7%.

As for `Nc1nc(Nc2ccc(S(=O)(=O)CCN3CCCC3)cc2)sc1C(=O)c1c(Cl)cccc1Cl` [DD(207)], the “% Inhib CDK4/D @ 0.1 μM” value is recorded as 41%, the “% Inhib CDK4/D @ 1 μM” value is given as 36.8% and the “% Inhib CDK4/D @ 0.03” value is recorded as −9.9%.

For the compound `COC(=O)CS(=O)(=O)c1ccc(Nc2nc(N)c(C(=O)c3c(Cl)cccc3Cl)s2)cc1` [DD(186)], the inhibition at 0.1 µM was determined as 26%, the “% Inhib CDK4/D @ 1 μM” value came to 38.9% and the “% Inhib CDK4/D @ 0.03” value worked out at 7%.

For the compound `CCOC(=O)CC[S+]([O-])c1ccc(Nc2nc(N)c(C(=O)c3c(Cl)cccc3Cl)s2)cc1` (stereo not drawn) [DD(102)], the inhibition at 0.1 µM is 42%, the inhibition at 1 µM amounted to 46.2% and the inhibition at 0.03 µM stood at 2.1%.

Take `CC(=O)OCCS(=O)(=O)c1ccc(Nc2nc(N)c(C(=O)c3c(Cl)cccc3Cl)s2)cc1` [DD(197)]: the inhibition at 0.1 µM worked out at 37%, the “% Inhib CDK4/D @ 1 μM” value amounted to 62.3% and the “% Inhib CDK4/D @ 0.03” value was 6.5%.

As for `CC(C)OC(=O)CS(=O)(=O)c1ccc(Nc2nc(N)c(C(=O)c3c(Cl)cccc3Cl)s2)cc1` [DD(223)], the “% Inhib CDK4/D @ 0.1 μM” value is reported as 35%, the “% Inhib CDK4/D @ 1 μM” value is listed as 11.7% and the “% Inhib CDK4/D @ 0.03” value was −11%.

For the compound `CC(CN(C)C)C[S+]([O-])c1cccc(Nc2nc(N)c(C(=O)c3c(Cl)cccc3Cl)s2)c1` (stereo not drawn) [DD(123)], the inhibition at 0.1 µM came to 34%, the inhibition at 1 µM was 51.2% and the inhibition at 0.03 µM worked out at 8%.

For the compound `Nc1nc(Nc2ccc([S+]([O-])CCO)cc2)sc1C(=O)c1c(Cl)cccc1Cl` (stereo not drawn) [DD(109)], the “% Inhib CDK4/D @ 0.1 μM” value is given as 67%, the “% Inhib CDK4/D @ 1 μM” value came to 73.5% and the “% Inhib CDK4/D @ 0.03” value is 25%.

Take `CN(C)CCSc1cccc(Nc2nc(N)c(C(=O)c3c(Cl)cccc3Cl)s2)c1` [DD(72)]: the inhibition at 0.1 µM worked out at 25%, the inhibition at 1 µM amounted to 69% and the inhibition at 0.03 µM is -1.1%.

With `COc1cccc(CSc2ccc(Nc3nc(N)c(C(=O)c4c(Cl)cccc4Cl)s3)cc2)c1` [DD(17)], the inhibition at 0.1 µM was -3%, the inhibition at 1 µM was 28.3% and the inhibition at 0.03 µM was -9.5%.

Turning to `Nc1nc(Nc2ccc(SCCN3CCOCC3)cc2)sc1C(=O)c1c(Cl)cccc1Cl` [DD(39)], the inhibition at 0.1 µM stood at 18%, the inhibition at 1 µM is 68.4% and the inhibition at 0.03 µM was determined as 0.2%.

Take `Cc1noc(C)c1C[S+]([O-])c1ccc(Nc2nc(N)c(C(=O)c3c(Cl)cccc3Cl)s2)cc1` (stereo not drawn) [DD(82)]: the inhibition at 0.1 µM is -4%, the inhibition at 1 µM stood at 72.3% and the inhibition at 0.03 µM is -3.3%.

With `NC(=O)CS(=O)(=O)c1ccc(Nc2nc(N)c(C(=O)c3c(Cl)cccc3Cl)s2)cc1` [DD(181)], the inhibition at 0.1 µM amounted to 28%, the inhibition at 1 µM was 27.5% and the “% Inhib CDK4/D @ 0.03” value is listed as −10%.

Take `COC(=O)/C=C/CS(=O)(=O)c1ccc(Nc2nc(N)c(C(=O)c3c(Cl)cccc3Cl)s2)cc1` [DD(203)]: the “% Inhib CDK4/D @ 0.1 μM” value came out at 37%, the “% Inhib CDK4/D @ 1 μM” value is 33.7% and the “% Inhib CDK4/D @ 0.03” value was −5.5%.

In the case of `Nc1nc(Nc2ccc(S(=O)(=O)CC(=O)Nc3ccccc3)cc2)sc1C(=O)c1c(Cl)cccc1Cl` [DD(215)], the “% Inhib CDK4/D @ 0.1 μM” value worked out at 25%, the “% Inhib CDK4/D @ 1 μM” value was found to be 4.9% and the “% Inhib CDK4/D @ 0.03” value is −15%.

Take `Cc1noc(C)c1CSc1cccc(Nc2nc(N)c(C(=O)c3c(Cl)cccc3Cl)s2)c1` [DD(42)]: the inhibition at 0.1 µM came out at 41%, the inhibition at 1 µM came to 63.7% and the inhibition at 0.03 µM was found to be 29%.

On to `CC(CSc1cccc(Nc2nc(N)c(C(=O)c3c(Cl)cccc3Cl)s2)c1)CN(C)C` (stereo not drawn) [DD(43)], for which the inhibition at 0.1 µM was determined as 16%, the inhibition at 1 µM came to 71.3% and the inhibition at 0.03 µM is 25%.

For the compound `C=CCC[S+]([O-])c1cccc(Nc2nc(N)c(C(=O)c3c(Cl)cccc3Cl)s2)c1` (stereo not drawn) [DD(126)], the inhibition at 0.1 µM was found to be 28%, the inhibition at 1 µM was 43.1% and the inhibition at 0.03 µM is 7.5%.

In the case of `CCC(CC)C[S+]([O-])c1ccc(Nc2nc(N)c(C(=O)c3c(Cl)cccc3Cl)s2)cc1` (stereo not drawn) [DD(116)], the inhibition at 0.1 µM stood at 15%, the inhibition at 1 µM was found to be 26.6% and the inhibition at 0.03 µM is -2.9%.

In the case of `CC(C)OC(=O)CSc1ccc(Nc2nc(N)c(C(=O)c3c(Cl)cccc3Cl)s2)cc1` [DD(23)], the inhibition at 0.1 µM stood at 37%, the inhibition at 1 µM was 72.1% and the inhibition at 0.03 µM worked out at 19%.

On to `Nc1nc(Nc2cccc([S+]([O-])CCN3CCCC3)c2)sc1C(=O)c1c(Cl)cccc1Cl` (stereo not drawn) [DD(127)], for which the inhibition at 0.1 µM was 34%, the inhibition at 1 µM is 49.6% and the inhibition at 0.03 µM was -4.3%.

Turning to `CCC(CC)CSc1cccc(Nc2nc(N)c(C(=O)c3c(Cl)cccc3Cl)s2)c1` [DD(76)], the inhibition at 0.1 µM was 9.6%, the inhibition at 1 µM is 29.5% and the inhibition at 0.03 µM turned out to be 19%.

Regarding `CN1CCCC(CS(=O)(=O)c2ccc(Nc3nc(N)c(C(=O)c4c(Cl)cccc4Cl)s3)cc2)C1` (stereo not drawn) [DD(187)], the inhibition at 0.1 µM came to 24%, the “% Inhib CDK4/D @ 1 μM” value is given as −6.4% and the “% Inhib CDK4/D @ 0.03” value is listed as 6%.

As to `CN1CCCC(CS(=O)(=O)c2ccc(Nc3nc(N)c(C(=O)c4c(Cl)cccc4Cl)s3)cc2)C1` (stereo not drawn) [DD(227)], the “% Inhib CDK4/D @ 0.1 μM” value was found to be 16%, the “% Inhib CDK4/D @ 1 μM” value is listed as 15.2% and the “% Inhib CDK4/D @ 0.03” value is −12%.

On to `COC(=O)/C=C/CSc1ccc(Nc2nc(N)c(C(=O)c3c(Cl)cccc3Cl)s2)cc1` [DD(4)], for which the inhibition at 0.1 µM was 11%, the inhibition at 1 µM was 49.1% and the inhibition at 0.03 µM turned out to be 5.4%.

With `CCN(CC)C(=O)C[S+]([O-])c1ccc(Nc2nc(N)c(C(=O)c3c(Cl)cccc3Cl)s2)cc1` (stereo not drawn) [DD(81)], the inhibition at 0.1 µM worked out at 21%, the inhibition at 1 µM was 57.4% and the inhibition at 0.03 µM was -21%.

As for `NC(=O)CC[S+]([O-])c1cccc(Nc2nc(N)c(C(=O)c3c(Cl)cccc3Cl)s2)c1` (stereo not drawn) [DD(148)], the inhibition at 0.1 µM was determined as 53%, the inhibition at 1 µM was 65.5% and the inhibition at 0.03 µM came out at 35%.

For the compound `CN(C)CCCSc1ccc(Nc2nc(N)c(C(=O)c3c(Cl)cccc3Cl)s2)cc1` [DD(10)], the inhibition at 0.1 µM was 6.6%, the inhibition at 1 µM turned out to be 54.5% and the inhibition at 0.03 µM turned out to be 2.6%.

For the compound `COC(=O)/C=C/C[S+]([O-])c1ccc(Nc2nc(N)c(C(=O)c3c(Cl)cccc3Cl)s2)cc1` (stereo not drawn) [DD(84)], the inhibition at 0.1 µM is 26%, the inhibition at 1 µM is 45.7% and the inhibition at 0.03 µM is -5.6%.

In the case of `CCN(CC)C(=O)CS(=O)(=O)c1ccc(Nc2nc(N)c(C(=O)c3c(Cl)cccc3Cl)s2)cc1` [DD(161)], the “% Inhib CDK4/D @ 0.1 μM” value is recorded as −7%, the inhibition at 1 µM worked out at 9.1% and the “% Inhib CDK4/D @ 0.03” value is reported as −9.2%.
